Data reported in patent publication US20220142960A1, “Compositions and Methods for Treating Metabolic Disorders” (VeroScience LLC, priority 2013, published 2022).

How the values were obtained:
Type in all cases: in vivo, rat
[1] = test system: insulin resistant rats on a high fat diet; assay: Dopamine infusion into the SCN of high fat fed SHR rats, GTT; details: male SHR rats on high fat diet
Protocol: Male SHR rats at approximately 12 weeks of age were fed a high fat diet for one month and were then treated with either dopamine or vehicle for a three minute period at the offset of light (14 hour daily photoperiod) via a cannula directed to the SCN daily for 2 weeks while maintained on the high fat diet. At the end of the treatment period, animals were subjected to a glucose tolerance test (GTT) (3 g/kg of glucose) and plasma samples were taken before and at 30, 60, 90, and 120 minutes after glucose treatment. Plasma samples were analyzed for glucose and insulin levels.

[2] = test system: insulin resistant high fat fed rats; assay: NMDA agonist directed to the SuMN in high fat fed rats, GTT; details: female Sprague Dawley HFD-sensitive rats, cannula to SuMN daily for 2 weeks at offset of light, relative to vehicle, FIG. 6
Protocol: Treatment of insulin resistant high fat fed rats with an NMDA agonist directed to the SuMN improved insulin resistance and glucose intolerance. Female Sprague Dawley rats were fed a high fat diet for one month and those animals most sensitive to the diet (those gaining the most weight in the group) were then treated with either an NMDA agonist or vehicle for a three minute period at the offset of light (14 hour daily photoperiod) via a cannula directed to the SuMN daily for 2 weeks while maintained on the high fat diet. At the end of the treatment period, animals were subjected to a glucose tolerance test (GTT) (3 g/kg of glucose) and plasma samples were taken before and at 30, 60, 90, and 120 minutes after glucose treatment. Plasma samples were analyzed for glucose and insulin levels.

[3] = test system: high fat diet-resistant rats (HF-R); assay: Chronic intra-SuMN AMPA treatment of high fat diet-resistant rats
Protocol: (§1) In separate protocols, female Sprague-Dawley high fat diet-resistant rats (HF-R) (16 animals) were fed high fat diets for 4 months or female Sprague-Dawley high fat diet-sensitive rats (HF-S) (16 animals) were fed high fat diets for 3 months. Following initial feeding protocols, AMPA (0.03 mM/0.5 µl) or vehicle was microinjected into SuMN daily for 13 (HF-R animals) or 14 d (HF-S) at the onset of locomotor activity. At the end of AMPA treatment, HF-R animals were sacrificed by decapitation. Trunk blood was collected for glucose and insulin analysis retroperitoneal fat mass were weighed. At the end of AMPA treatment, HF-S animals were subjected to glucose tolerance tests (GTT) and two days after GTT, were sacrificed. Trunk blood was collected for glucose and insulin analysis and retroperitoneal fat mass were weighed. Body weight and food consumption were measured daily throughout both protocols.

[4] = test system: dopamine neurons in SuMN; assay: Microdialysis of dopamine metabolites at SCN after intra-SuMN AMPA infusion; details: compared to vehicle
Protocol: Female Sprague-Dawley rats (12) were housed in a room at constant temperature and humidity with a 14/10 light/dark cycle were fed regular diet ad libitum. Each rat was microinjected with retrograde tracer fluorogold (4%, 20 nl) to SCN and allowed to rest for 10 days. The rats were then perfused with 4% paraformaldehyde and the brains were dissected for immunohistochemistry. Dopamine neurons projecting to SCN were identified with double immunochemistry of fluorogold (FG) and tyrosine hydroxylase (TH). To verify functional connection, dopamine metabolites at SCN were measured by microdialysis in freely moving rats following infusion of AMPA (0.3 mM/0.5 µl) to SuMN.

[5] = test system: high fat diet-sensitive rats (HF-S); assay: Chronic intra-SuMN AMPA treatment of high fat diet-sensitive rats, GTT
Protocol: as §1

[6] = cannula to SCN daily for 2 weeks at offset of light, relative to vehicle, FIG. 7
[7] = AMPA into SuMN daily for 13 d, versus vehicle, p<0.01

CN[C@H](CC(=O)O)C(=O)O [NMDA]
insulin resistance [1, 6]: significantly improved
plasma glucose levels during the GTT [1, 6]: significantly reduced
plasma insulin levels during the GTT [1, 6]: significantly reduced
insulin resistance [2]: significantly improved
plasma glucose levels during the GTT [2]: significantly reduced
plasma insulin levels during the GTT [2]: significantly reduced

NCCc1ccc(O)c(O)c1 [dopamine]
insulin resistance [1, 6]: improved
glucose intolerance ([1]; infusion directly into the SCN daily for 2 weeks): improved

Cc1o[nH]c(=O)c1CC(N)C(=O)O (stereo not shown) [AMPA]
body weight ([3]; AMPA 0.03 mM/0.5 µl into SuMN daily for 13 d at onset of locomotor activity, versus vehicle, p<0.05): significantly reduced
retroperitoneal fat ([3]; AMPA into SuMN daily for 13 d, vehicle 13.4 g): 9.02 g
daily food consumption ([3]; AMPA into SuMN daily for 13 d, vehicle 17.7 g, p<0.05): 13.7 g
total abdominal fat ([3]; AMPA into SuMN daily for 13 d, vehicle 19.1 g): 12.9 g
reduction of retroperitoneal fat [3, 7]: 33%
reduction of total abdominal fat [3, 7]: 32%
dopamine metabolite HVA at SCN area ([4]; intra-SuMN AMPA infusion 0.3 mM/0.5 µl, freely moving rats, p<0.05, FIG. 1A): significant elevations
dopamine metabolite DOPAC at SCN area ([4]; intra-SuMN AMPA infusion 0.3 mM/0.5 µl, freely moving rats, p<0.05, FIG. 1B): significant elevations
serotonin metabolite 5-HIAA at the SCN ([4]; intra-SuMN AMPA infusion, FIG. 1C): did produce a significant elevation
plasma glucose concentration during the GTT ([5]; AMPA 0.03 mM/0.5 µl into SuMN daily for 14 d, compared to vehicle): significantly reduced
total area under the glucose GTT curve ([5]; AMPA into SuMN daily for 14 d): decreased
basal plasma insulin level ([5]; AMPA into SuMN daily for 14 d, decreased from 2.2, P<0.05): 1.15 ng/mL
basal plasma glucose level ([5]; AMPA into SuMN daily for 14 d, decreased from 114, P<0.05): 106 mg/dL
Insulin resistant index (HOMA-IR) ([5]; AMPA into SuMN daily for 14 d, reduced from 13.0±1.79, p=0.018): 6.3±1.70
